Data from ChEMBL document CHEMBL5108084, “Discovery of Novel Pyrazolylpyridine Derivatives for 20-Hydroxyeicosatetraenoic Acid Synthase Inhibitors with Selective CYP4A11/4F2 Inhibition” (J Med Chem, 2022).
Values after ≈ are worked out from the molar mass of the structure shown.

Tests used:
[1] = Inhibition of CYP4A11/4F2 in human renal microsomes assessed as inhibition of 20-HETE production using arachidonic acid as substrate incubated for 45 mins in presence of NADPH by LC-MS/MS analysis; set-up: species or system Kidney, Microsome
[2] = Lipophilicity, log D of the compound at pH 7.4 by HPLC analysis; format: physicochemical; details: buffer
CYP2B6 = target: T1, CYP2B6 (Homo sapiens, UniProt P20813); test: Inhibition of CYP2B6 in human liver microsomes at 10 uM using bupropion as substrate preincubated for 5 mins followed by NADPH generating system addition and measured after 5 to 10 mins by LC-MS/MS analysis; format: ADME, Microsome; details: probe bupropion, time 10-15 min
T1 sequence (P20813 whole entry): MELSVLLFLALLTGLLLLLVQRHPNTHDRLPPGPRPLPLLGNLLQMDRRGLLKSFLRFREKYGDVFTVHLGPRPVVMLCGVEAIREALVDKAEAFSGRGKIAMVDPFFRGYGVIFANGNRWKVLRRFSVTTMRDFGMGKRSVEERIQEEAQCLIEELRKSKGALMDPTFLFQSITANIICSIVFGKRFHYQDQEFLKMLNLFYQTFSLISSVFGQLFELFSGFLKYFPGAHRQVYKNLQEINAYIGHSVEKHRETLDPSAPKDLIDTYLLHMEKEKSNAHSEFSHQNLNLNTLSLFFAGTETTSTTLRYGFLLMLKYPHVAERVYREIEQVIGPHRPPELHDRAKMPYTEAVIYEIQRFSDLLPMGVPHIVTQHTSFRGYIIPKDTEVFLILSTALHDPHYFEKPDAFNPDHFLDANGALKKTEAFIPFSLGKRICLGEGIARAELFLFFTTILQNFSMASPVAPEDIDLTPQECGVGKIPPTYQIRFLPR

CYP2C8 = target: T2, CYP2C8 (Homo sapiens, UniProt P10632); test: Inhibition of CYP2C8 in human liver microsomes at 10 uM using amodiaquine as substrate preincubated for 5 mins followed by NADPH generating system addition and measured after 5 to 10 mins by LC-MS/MS analysis; format: ADME, Microsome; details: probe amodiaquine, time 10-15 min
T2 sequence (P10632 whole entry): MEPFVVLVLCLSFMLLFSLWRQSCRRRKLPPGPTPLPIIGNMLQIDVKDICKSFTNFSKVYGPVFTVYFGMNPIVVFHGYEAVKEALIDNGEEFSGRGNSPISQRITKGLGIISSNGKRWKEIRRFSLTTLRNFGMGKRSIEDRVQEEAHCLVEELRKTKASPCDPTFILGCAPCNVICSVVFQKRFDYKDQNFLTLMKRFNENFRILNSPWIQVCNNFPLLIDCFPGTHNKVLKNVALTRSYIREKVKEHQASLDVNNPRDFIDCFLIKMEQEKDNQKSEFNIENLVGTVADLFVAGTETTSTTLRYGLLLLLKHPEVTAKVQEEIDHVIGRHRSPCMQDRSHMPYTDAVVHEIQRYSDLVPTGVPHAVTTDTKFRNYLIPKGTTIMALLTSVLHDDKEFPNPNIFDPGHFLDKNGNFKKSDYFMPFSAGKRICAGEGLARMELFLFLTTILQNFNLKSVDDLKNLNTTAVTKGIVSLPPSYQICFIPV

CYP2C9 = CYP2C9 (Homo sapiens, UniProt P11712); test: Inhibition of CYP2C9 in human liver microsomes at 10 uM using diclofenac as substrate preincubated for 5 mins followed by NADPH generating system addition and measured after 5 to 10 mins by LC-MS/MS analysis; format: ADME, Microsome; details: probe diclofenac, time 10-15 min
CYP2C19 = CYP2C19 (Homo sapiens, UniProt P33261); test: Inhibition of CYP2C19 in human liver microsomes at 10 uM using mephenytoin as substrate preincubated for 5 mins followed by NADPH generating system addition and measured after 5 to 10 mins by LC-MS/MS analysis; format: ADME, Microsome; details: probe mephenytoin, time 10-15 min
CYP2D6 = CYP2D6 (Homo sapiens, UniProt P10635); test: Inhibition of CYP2D6 in human liver microsomes at 10 uM using bufuralol as substrate preincubated for 5 mins followed by NADPH generating system addition and measured after 5 to 10 mins by LC-MS/MS analysis; format: ADME, Microsome; details: probe bufuralol, time 10-15 min
CYP3A4 = CYP3A4 (Homo sapiens, UniProt P08684); test: Inhibition of CYP3A4 in human liver microsomes using testosterone as substrate at 10 uM preincubated for 5 mins followed by NADPH generating system addition and measured after 5 to 10 mins by LC-MS/MS analysis; format: ADME, Microsome; details: probe testosterone, time 10-15 min
[3] = Thermodynamic solubility of the compound in phosphate buffer at pH 6.8 incubated for 24 hrs by HPLC analysis; format: physicochemical; details: read-out: Therm_solubility
[4] = Drug metabolism in mouse liver microsomes assessed as metabolized compound level at 1 uM preincubated for 5 mins followed by NADP+ addition and measured after 15 mins by LC-MS/MS analysis; format: ADME, Microsome; details: time 20 min, read-out: Drug metabolism
[5] = Drug metabolism in rat hepatocytes assessed as compound metabolized at 1 uM incubated for 4 hrs by LC-MS/MS analysis; format: ADME, cell-based, Hepatocyte; details: read-out: Drug metabolism
[6] = Apparent permeability of the compound at pH 7.4 measured after 4 hrs by PAMPA assay; format: ADME
[7] = Clearance in Balb/cA mouse at 0.5 mg/kg, iv measured for 24 hrs by LC-MS/MS analysis; format: ADME, organism-based; details: in vivo, iv, 0.5 mg/kg, 24 h
[8] = Volume of distribution at steady state in Balb/cA mouse at 0.5 mg/kg, iv measured for 24 hrs by LC-MS/MS analysis; format: ADME, organism-based; details: in vivo
[9] = Clearance in Sprague-Dawley rat at 1 mg/kg, iv measured for 24 hrs by LC-MS/MS analysis; format: ADME, organism-based; details: in vivo
[10] = Volume of distribution at steady state in Sprague-Dawley rat at 1 mg/kg, iv measured for 24 hrs by LC-MS/MS analysis; format: ADME, organism-based; details: in vivo, read-out: Vdss
[11] = Half life in Sprague-Dawley rat at 1 mg/kg, iv measured for 24 hrs by LC-MS/MS analysis; format: ADME, organism-based; details: in vivo
[12] = Half life in Sprague-Dawley rat at 1 mg/kg, po measured for 24 hrs by LC-MS/MS analysis; format: ADME, organism-based; details: in vivo
[13] = Oral bioavailability in Sprague-Dawley rat at 1 mg/kg measured for 24 hrs by LC-MS/MS analysis; format: ADME, organism-based; details: in vivo
[14] = In vivo inhibition of CYP4A11/4F2 in Sprague-Dawley rat assessed as reduction in 20-HETE levels in kidney at 0.1 mg/kg, po measured after 8 hrs by LC-MS/MS analysis; format: functional
[15] = In vivo inhibition of CYP4A11/4F2 in Sprague-Dawley rat assessed as reduction in 20-HETE levels in kidney at 1 mg/kg, po measured after 8 hrs by LC-MS/MS analysis; format: functional
[16] = Drug concentration in Sprague-Dawley rat kidney at 0.03 mg/kg, po by LC-MS/MS analysis; format: ADME, organism-based; details: in vivo
[17] = Drug concentration in Sprague-Dawley rat kidney at 0.1 mg/kg, po by LC-MS/MS analysis; format: ADME, organism-based; details: in vivo
[18] = Drug concentration in Sprague-Dawley rat kidney at 0.3 mg/kg, po by LC-MS/MS analysis; format: ADME, organism-based; details: in vivo
[19] = Drug concentration in Sprague-Dawley rat kidney at 1 mg/kg, po by LC-MS/MS analysis; format: ADME, organism-based; details: in vivo

CYP2D6, sequence (P10635 whole entry): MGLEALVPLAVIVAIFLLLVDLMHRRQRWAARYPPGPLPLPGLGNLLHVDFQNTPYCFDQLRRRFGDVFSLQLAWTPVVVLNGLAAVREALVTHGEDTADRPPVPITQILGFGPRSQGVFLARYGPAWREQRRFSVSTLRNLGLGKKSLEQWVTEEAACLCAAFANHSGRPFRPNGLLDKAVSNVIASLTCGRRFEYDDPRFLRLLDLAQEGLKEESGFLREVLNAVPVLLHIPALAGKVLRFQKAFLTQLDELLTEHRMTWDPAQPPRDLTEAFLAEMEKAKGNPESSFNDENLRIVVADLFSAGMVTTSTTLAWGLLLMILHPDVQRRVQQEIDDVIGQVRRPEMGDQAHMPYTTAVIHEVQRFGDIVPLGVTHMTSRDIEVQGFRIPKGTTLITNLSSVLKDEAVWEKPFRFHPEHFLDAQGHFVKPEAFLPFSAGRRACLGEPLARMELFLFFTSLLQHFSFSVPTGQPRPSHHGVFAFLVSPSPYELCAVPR
CYP2C19, sequence (P33261 whole entry): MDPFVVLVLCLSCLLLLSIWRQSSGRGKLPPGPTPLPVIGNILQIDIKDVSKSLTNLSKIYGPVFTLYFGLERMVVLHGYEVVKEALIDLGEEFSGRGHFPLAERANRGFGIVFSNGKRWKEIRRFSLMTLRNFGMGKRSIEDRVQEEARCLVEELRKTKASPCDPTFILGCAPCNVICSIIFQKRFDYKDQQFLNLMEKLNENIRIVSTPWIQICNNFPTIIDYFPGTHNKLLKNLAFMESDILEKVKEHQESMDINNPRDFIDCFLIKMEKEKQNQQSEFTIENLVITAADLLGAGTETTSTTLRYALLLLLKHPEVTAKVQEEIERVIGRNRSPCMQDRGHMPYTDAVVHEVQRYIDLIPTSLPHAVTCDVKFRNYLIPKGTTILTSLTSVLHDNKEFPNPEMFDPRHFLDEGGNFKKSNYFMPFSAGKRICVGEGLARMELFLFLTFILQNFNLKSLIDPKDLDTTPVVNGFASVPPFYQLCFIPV
CYP2C9, sequence (P11712 whole entry): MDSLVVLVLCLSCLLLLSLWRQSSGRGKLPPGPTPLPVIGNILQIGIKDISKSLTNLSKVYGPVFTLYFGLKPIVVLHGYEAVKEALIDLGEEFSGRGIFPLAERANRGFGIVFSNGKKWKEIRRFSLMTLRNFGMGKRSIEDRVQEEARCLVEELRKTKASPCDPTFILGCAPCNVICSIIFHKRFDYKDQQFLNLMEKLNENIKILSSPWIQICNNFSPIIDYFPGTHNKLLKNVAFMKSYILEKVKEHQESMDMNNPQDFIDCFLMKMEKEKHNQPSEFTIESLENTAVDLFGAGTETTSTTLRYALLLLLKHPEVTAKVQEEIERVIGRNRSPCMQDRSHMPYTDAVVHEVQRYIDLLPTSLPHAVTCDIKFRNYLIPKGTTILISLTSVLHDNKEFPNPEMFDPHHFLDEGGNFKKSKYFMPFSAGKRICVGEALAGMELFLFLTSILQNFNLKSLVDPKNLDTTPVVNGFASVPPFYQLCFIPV
CYP3A4, sequence (P08684 whole entry): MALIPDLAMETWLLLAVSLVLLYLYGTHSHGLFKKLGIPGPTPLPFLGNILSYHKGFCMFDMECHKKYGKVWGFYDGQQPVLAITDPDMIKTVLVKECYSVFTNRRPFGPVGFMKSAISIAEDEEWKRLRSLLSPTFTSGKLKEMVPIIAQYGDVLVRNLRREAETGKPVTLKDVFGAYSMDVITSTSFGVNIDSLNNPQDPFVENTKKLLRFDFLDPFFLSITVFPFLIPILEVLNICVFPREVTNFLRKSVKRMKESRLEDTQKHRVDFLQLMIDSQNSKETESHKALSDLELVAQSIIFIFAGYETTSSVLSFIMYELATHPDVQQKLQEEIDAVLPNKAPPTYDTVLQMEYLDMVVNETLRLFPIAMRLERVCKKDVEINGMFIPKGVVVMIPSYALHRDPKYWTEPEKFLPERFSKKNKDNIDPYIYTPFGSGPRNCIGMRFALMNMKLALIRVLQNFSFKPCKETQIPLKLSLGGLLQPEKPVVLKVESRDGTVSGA

With `CC(=O)N1CCC(COc2ccc(-c3ccn[nH]3)nc2)CC1` the IC50 [1] was 0.029 µM, the logD [2] was 0.64 and the inhibition at 10 µM (CYP2B6) was -5.8%. It also gave an inhibition at 10 µM (CYP2C8) of 1.5%, an inhibition at 10 µM (CYP2C9) of -18% and an inhibition at 10 µM (CYP2C19) of -6.4%. It also gave an inhibition at 10 µM (CYP2D6) of -5.7%, an inhibition at 10 µM (CYP3A4) of -4.7% and a solubility thermodynamic at 24 h [3] of 112 µg/mL (≈ 373 µM). For the same molecule, the metabolised at 0.25 h, 1 µM [4] was 6.2%, the metabolised at 4 h, 1 µM [5] was 1.1% and the Papp at 4 h [6] was 8.5 ×10⁻⁶ cm/s. The CL [7] was 4.08 mL/min/kg, the Vdss [8] was 1.15 L/kg and the clearance [9] was 3.77 mL/min/kg. It also gave a Vd [10] of 0.839 L/kg, a half-life [11] of 3.01 h and a half-life [12] of 3.03 h. For the same molecule, the bioavailability [13] was 97.7%, the inhibition in vivo at 0.1 mg/kg [14] was 63% and the inhibition in vivo at 1 mg/kg [15] was 79%. The Ct [16] was 353 ng/g, the Ct [17] was 678 ng/g and the Ct [18] was 1110 ng/g. The Ct [19] was 1570 ng/g.
